According to paper PMC9623604 (European journal of pharmacology, 2022):

Target: mitochondrial complex I (NADH:ubiquinone oxidoreductase) (Mus musculus, UniProt P03888+Q91WD5+Q9DC70)
Format: biochemical

Q: Which IC50 does the source give for `CN(C)C(=N)N=C(N)N` [metformin] here?
A: ~2000 µM
